Measured values from ChEMBL document CHEMBL1153407, “12-Substituted 2,3-dimethoxy-8,9-methylenedioxybenzo[i]phenanthridines as novel topoisomerase I-targeting antitumor agents” (Bioorg Med Chem, 2009).

Key:
[1] = target: T1, DNA topoisomerase 1 (Homo sapiens) (UniProt P11387); experiment: Inhibition of human topoisomerase 1 expressed in sf9 cells assessed as drug level causing 10% mediated DNA cleavage relative to topotecan
T1 sequence (whole entry): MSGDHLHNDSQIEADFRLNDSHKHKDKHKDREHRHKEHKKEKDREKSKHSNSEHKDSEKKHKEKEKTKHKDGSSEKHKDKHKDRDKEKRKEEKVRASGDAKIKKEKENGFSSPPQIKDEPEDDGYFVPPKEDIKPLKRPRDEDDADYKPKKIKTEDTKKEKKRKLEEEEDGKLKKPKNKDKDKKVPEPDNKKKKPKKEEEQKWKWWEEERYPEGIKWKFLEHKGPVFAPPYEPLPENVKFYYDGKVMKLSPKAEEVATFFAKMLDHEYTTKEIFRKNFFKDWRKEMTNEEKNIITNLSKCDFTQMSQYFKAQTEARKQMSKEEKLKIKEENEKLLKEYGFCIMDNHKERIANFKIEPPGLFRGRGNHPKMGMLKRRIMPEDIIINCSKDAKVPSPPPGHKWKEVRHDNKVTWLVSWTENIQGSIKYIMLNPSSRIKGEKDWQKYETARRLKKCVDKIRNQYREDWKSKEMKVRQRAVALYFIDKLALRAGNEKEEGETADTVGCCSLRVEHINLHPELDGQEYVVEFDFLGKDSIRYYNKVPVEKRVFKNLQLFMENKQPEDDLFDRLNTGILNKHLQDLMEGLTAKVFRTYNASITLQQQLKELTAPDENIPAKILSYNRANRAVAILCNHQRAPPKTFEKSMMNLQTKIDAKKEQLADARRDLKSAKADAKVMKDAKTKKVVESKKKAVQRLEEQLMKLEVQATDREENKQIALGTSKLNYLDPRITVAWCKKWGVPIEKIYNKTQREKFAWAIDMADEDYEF

[2] = Cytotoxicity against human RPMI8402 cells after 4 days by MTT method; format: functional, cell-based; conditions: RPMI 8402, 96 h
[3] = Cytotoxicity against camptothecin-resistant human CPT-K5 cells after 4 days by MTT method; format: functional, cell-based; conditions: CPT-K5, 96 h
P388 [4] = experiment: Cytotoxicity against mouse P388 cells after 4 days by MTT method; format: functional, cell-based; conditions: P388, 96 h
P388 [5] = experiment: Cytotoxicity against camptothecin-resistant mouse P388 cells after 4 days by MTT method; format: functional, cell-based; conditions: P388, 96 h
[6] = Cytotoxicity against human KB3-1 cells after 4 days by MTT method; format: functional, cell-based; conditions: KB 3-1, 96 h
[7] = Cytotoxicity against MDR1 overexpressing human KBV1 cells after 4 days by MTT method; format: functional, cell-based; conditions: KB-V1, 96 h
[8] = Cytotoxicity against BCRP overexpressing human KBH5.0 cells after 4 days by MTT method; format: functional, cell-based; conditions: KBH5.0 cell, 96 h

For `COc1cc2c(C(O)CCCN(C)C)cc3c4cc5c(cc4ncc3c2cc1OC)OCO5` (centres undefined), the Activity [1] was 9.2, the IC50 [2] was 300 nM and the IC50 [3] was 2100 nM. For the same compound, the IC50 (P388 [4]) was 410 nM, the IC50 (P388 [5]) was 510 nM and the IC50 [6] was 170 nM. It also gave an IC50 [7] of 1900 nM and an IC50 [8] of 550 nM.

`COc1cc2c(C(N)=O)cc3c4cc5c(cc4ncc3c2cc1OC)OCO5` gave an Activity [1] of 0.8, an IC50 [2] of 4000 nM and an IC50 [3] of over 10000 nM. For the same compound, the IC50 (P388 [4]) was 1600 nM, the IC50 (P388 [5]) was over 10000 nM and the IC50 [6] was 1500 nM. The IC50 [7] was over 10000 nM and the IC50 [8] was over 10000 nM.

Compound `COc1cc2c(C=O)cc3c4cc5c(cc4ncc3c2cc1OC)OCO5` has an Activity [1] of 4.7, an IC50 [2] of 3 nM and an IC50 [3] of 3 nM. For the same compound, the IC50 (P388 [4]) was 2 nM, the IC50 (P388 [5]) was 2 nM and the IC50 [6] was 4 nM. The IC50 [7] was 16 nM and the IC50 [8] was 19 nM.

Compound `COc1cc2c(CN(C)C)cc3c4cc5c(cc4ncc3c2cc1OC)OCO5` has an Activity [1] of 1.1, an IC50 [2] of 33 nM and an IC50 [3] of 33 nM. The IC50 (P388 [4]) was 5 nM, the IC50 (P388 [5]) was 15 nM and the IC50 [6] was 30 nM. It also gave an IC50 [7] of 170 nM and an IC50 [8] of 60 nM.

`COc1cc2c(/C=C/[N+](=O)[O-])cc3c4cc5c(cc4ncc3c2cc1OC)OCO5` showed an Activity [1] of 9.2, an IC50 [2] of 33 nM and an IC50 [3] of 35 nM. The IC50 (P388 [4]) was 25 nM, the IC50 (P388 [5]) was 25 nM and the IC50 [6] was 30 nM. It also gave an IC50 [7] of 1780 nM and an IC50 [8] of 40 nM.

With `COc1cc2c3cnc4cc5c(cc4c3c(=O)n(CCN(C)C)c2cc1OC)OCO5` the Activity [1] was 0.6, the IC50 [2] was 0.7 nM and the IC50 [3] was 210 nM. The IC50 (P388 [5]) was 15 nM, the IC50 [6] was 3 nM and the IC50 [7] was 4 nM. For the same compound, the IC50 [8] was 4 nM.

`CC[C@@]1(O)C(=O)OCc2c1cc1n(c2=O)Cc2cc3c(CN(C)C)c(O)ccc3nc2-1` [TOPOTECAN] gave an IC50 [6] of 40 nM, an IC50 [7] of 440 nM and an IC50 [8] of 440 nM.

Work on `COc1cc2c(CCN)cc3c4cc5c(cc4ncc3c2cc1OC)OCO5` yielded an Activity [1] of 0.3, an IC50 [2] of 25 nM and an IC50 [3] of 250 nM. It also gave an IC50 (P388 [4]) of 16 nM, an IC50 (P388 [5]) of 300 nM and an IC50 [6] of 50 nM. For the same compound, the IC50 [7] was 500 nM and the IC50 [8] was 200 nM.

`COc1cc2c(CCN(C)C)cc3c4cc5c(cc4ncc3c2cc1OC)OCO5` gave an Activity [1] of 0.5, an IC50 [2] of 30 nM and an IC50 [3] of 450 nM. It also gave an IC50 (P388 [4]) of 30 nM, an IC50 (P388 [5]) of 300 nM and an IC50 [6] of 25 nM. The IC50 [7] was 80 nM and the IC50 [8] was 70 nM.

`COc1cc2c(CC[N+](=O)[O-])cc3c4cc5c(cc4ncc3c2cc1OC)OCO5` showed an Activity [1] of 7.7, an IC50 [2] of 380 nM and an IC50 [3] of 300 nM. The IC50 (P388 [4]) was 280 nM, the IC50 (P388 [5]) was 290 nM and the IC50 [6] was 300 nM. It also gave an IC50 [7] of 440 nM and an IC50 [8] of 490 nM.

Compound `COc1cc2c(/C=C/CN(C)C)cc3c4cc5c(cc4ncc3c2cc1OC)OCO5` has an Activity [1] of 7.7, an IC50 [2] of 45 nM and an IC50 [3] of 83 nM. For the same compound, the IC50 (P388 [4]) was 30 nM, the IC50 (P388 [5]) was 37 nM and the IC50 [6] was 160 nM. For the same compound, the IC50 [7] was 370 nM and the IC50 [8] was 290 nM.

`COc1cc2c(C(=O)NCCN(C)C)cc3c4cc5c(cc4ncc3c2cc1OC)OCO5` showed an Activity [1] of 0.1, an IC50 [2] of 3 nM and an IC50 [3] of 1000 nM. It also gave an IC50 (P388 [4]) of 3 nM, an IC50 (P388 [5]) of 320 nM and an IC50 [6] of 5 nM. It also gave an IC50 [7] of 220 nM and an IC50 [8] of 60 nM.

Compound `COc1cc2c(CNCCN(C)C)cc3c4cc5c(cc4ncc3c2cc1OC)OCO5` has an Activity [1] of 1.9, an IC50 [2] of 24 nM and an IC50 [3] of 30 nM. It also gave an IC50 (P388 [4]) of 20 nM, an IC50 (P388 [5]) of 24 nM and an IC50 [6] of 25 nM. It also gave an IC50 [7] of 27 nM and an IC50 [8] of 38 nM.

Work on `COc1cc2c(CCCCN(C)C)cc3c4cc5c(cc4ncc3c2cc1OC)OCO5` yielded an Activity [1] of 0.2, an IC50 [2] of 1000 nM and an IC50 [3] of 2300 nM. For the same compound, the IC50 (P388 [4]) was 1400 nM, the IC50 (P388 [5]) was 2100 nM and the IC50 [6] was 400 nM. The IC50 [7] was 4000 nM and the IC50 [8] was 950 nM.

Work on `CNC(=O)c1cc2c3cc4c(cc3ncc2c2cc(OC)c(OC)cc12)OCO4` yielded an Activity [1] of 1.2, an IC50 [2] of 40 nM and an IC50 [3] of over 10000 nM. The IC50 (P388 [4]) was 30 nM, the IC50 (P388 [5]) was 300 nM and the IC50 [6] was 31 nM. It also gave an IC50 [7] of 100 nM and an IC50 [8] of 80 nM.

With `COc1cc2c(CO)cc3c4cc5c(cc4ncc3c2cc1OC)OCO5` the Activity [1] was 0.25, the IC50 [2] was 30 nM and the IC50 [3] was 30 nM. The IC50 (P388 [4]) was 30 nM, the IC50 (P388 [5]) was 30 nM and the IC50 [6] was 45 nM. For the same compound, the IC50 [7] was 75 nM and the IC50 [8] was 80 nM.

Work on `CCc1c2c(nc3ccc(O)cc13)-c1cc3c(c(=O)n1C2)COC(=O)[C@]3(O)CC` [7-ETHYL-10-HYDROXYCAMPTOTHECIN] yielded an IC50 [6] of 4 nM, an IC50 [7] of 46 nM and an IC50 [8] of 300 nM.

For `COc1cc2c(CCCN(C)C)cc3c4cc5c(cc4ncc3c2cc1OC)OCO5`, the Activity [1] was 10, the IC50 [2] was 180 nM and the IC50 [3] was 140 nM. For the same compound, the IC50 (P388 [4]) was 38 nM, the IC50 (P388 [5]) was 100 nM and the IC50 [6] was 40 nM. For the same compound, the IC50 [7] was 500 nM and the IC50 [8] was 180 nM.

Work on `COc1cc2c(=O)n(CCN(C)C)c3c4cc5c(cc4ncc3c2cc1OC)OCO5` yielded an Activity [1] of 0.3, an IC50 [2] of 2 nM and an IC50 [3] of 900 nM. For the same compound, the IC50 [6] was 5 nM, the IC50 [7] was 2 nM and the IC50 [8] was 6 nM.

`COc1cc2c(C(=O)N(C)C)cc3c4cc5c(cc4ncc3c2cc1OC)OCO5` showed an Activity [1] of 1.1, an IC50 [2] of 600 nM and an IC50 [3] of over 10000 nM. The IC50 (P388 [4]) was 480 nM, the IC50 (P388 [5]) was over 10000 nM and the IC50 [6] was 600 nM. It also gave an IC50 [7] of 700 nM and an IC50 [8] of 380 nM.

Work on `COc1cc2c(/C=C/CCN(C)C)cc3c4cc5c(cc4ncc3c2cc1OC)OCO5` yielded an Activity [1] of 15, an IC50 [2] of 300 nM and an IC50 [3] of 220 nM. For the same compound, the IC50 (P388 [4]) was 30 nM, the IC50 (P388 [5]) was 60 nM and the IC50 [6] was 320 nM. It also gave an IC50 [7] of 400 nM and an IC50 [8] of 320 nM.

With `CC[C@@]1(O)C(=O)OCc2c1cc1n(c2=O)Cc2cc3ccccc3nc2-1` [CAMPTOTHECIN] the Activity [1] was 0.2, the IC50 [2] was 4 nM and the IC50 [3] was over 10000 nM. The IC50 (P388 [5]) was over 10000 nM.
